The target of assay [1] is binding of LPS to monocytes. The assay can be described thus: Inhibition of FITC-LPS binding to monocytes (flow cytometry). Format: cell-based, human. Particulars: for IC50: FITC-LPS 2.5 ng/ml, 30 ng/ml recombinant LBP, mononuclear cells of healthy volunteers, 30 minutes at 37° C., read-out: 50% inhibition concentration; for inhibition of binding of LPS to monocytes (in words): FITC-LPS binding to monocytes in vitro, FIG. 2 / FIG. 4. Here is the method:
2.1 Materials and method LPS of Salmonella Re595 (ReLPS, supra) is labelled with FITC (Sigma; F7250) under conditions in which LPS is present as monomer, resulting in a FITC-LPS preparation with a ratio of 1 molecule FITC per molecule PLS. After extension desalting and dialysis against PBS, the stock solution of FITC-LPS is stored at −20° C. Mononuclear leukocytes (monocytes and lymphocytes) are isolated from heparin blood of healthy volunteers via a Ficol (Pharmacial) gradient in accordance with a standard method. After washing the cells are resuspended in isotonic HEPES buffer (with 1 mM CalCl2 and 2% BSA). Preparations with SAP are mixed with FITC-LPS and subsequently added to 3×10^5 mononuclear cells and 30 ng/ml recombinant LSP (obtained from Dr. Lichtenstein) in a total volume of 50 μl and a FITC-LPS concentration of 2.5 ng/ml. After an incubating period of 30 minutes at 37° C., the samples are stored on ice. Analysis of monocyte-associated FITC-LPS binding takes place with PAC Scan™ Flow cytometer. Forward and Sideward Scatter parameters are used to identify the monocyte population. With LysisII™ software (Beckton & Dickinson) the average fluorescence value of 5000 monocytes is calculated. See also Weersing A. J. L. et al., J. Immunol. 145, 318-324 (1990)).
3.1 Materials and method The test was performed in the same manner as described in example 2. However, SAP fragments (peptides) were used instead of SAP. The amino acid composition of the tested peptides is shown in table 2, as well as the concentration at which 50% inhibition occurs.
On the technique in general: Flow cytometry measures light scatter and fluorescence of single cells or particles in a stream.

Assay [2] concerns LPS priming of neutrophils. The assay is described as follows: Inhibition of LPS priming of neutrophils (fMLP/luminol luminescence). The format is cell-based, human. The settings on record: 1 ng/ml ReLPS, 30 ng/ml r-LBP, 30 minutes at 37° C., fMLP stimulus, FIG. 3. The text has this: 4.1 Materials and method Neutrophils are isolated from heparin blood of healthy volunteers via a Histopaque-Picoll gradient in accordance with a standard method (Van Amerafoort, E. S. & J. A. G. van Strijp, Cytometry 17, 294-301 (1994). The remaining erythrocytes in the neutrophil fraction are lysed with sterile water (for 30 seconds) and, after reinstatement of the isotonicity, the fraction is washed. The cells are finally inserted (suspended) in HGSS+2% Human Serum Albumin (HSA). Cells (1×10^4) are incubated with 1 ng/ml ReLPS, 30 ng/ml recombinant LPS-binding protein (r-LPS) and a sample SAP in a total volume of 100 μl for 30 minutes at 37° C. The samples are subsequently placed in a luminometer (Berthold; Autolumat LB953), whereafter via automatic injection luminol (180 μM) and 1 μM fMLP (formylmethyonyl-leucyl-phenylalanine) are added as stimulus to each tube. The luminescence response is measured continuously for 15 minutes and the results expressed as total luminescence response (area under the graph). See also Weersink et al., Immunology 83, 617-623 (1994).

Assay [3] has as its system LPS of Salmonella Re595. The assay is described as follows: Binding to LPS-Beads, SDS-PAGE analysis. The settings on record: FIG. 1A and 1B, serum pre-incubated with free ReLPS. Here is the method:
1.1 Materials and method A 1 mg/ml solution of LPS of Salmonella Re595 (Sigma; L9764) in carbonate buffer (0.1 M, pH 9.5) is incubated for 24 hours with 5×10^7 DynaBeads™ (M450, Dynal A. S., Oslo, Norway) activated with Tosyl. The beads loaded with LPS are washed 3x and stored in HBSS+0.1% Na-azide (5×10^7 b/ml). A 10% dilution (1 to 10 dilution) of serum of healthy volunteers is mixed with 5×10^6 LPS-Beads for 30 minutes at 22° C. The serum has optionally been incubated before hand with different concentrations of free LPS. The beads are washed 3x with HBSS (Gibco BRL, Gaithersburg, Md., US) and subsequently resuspended in 25 μl SDS-PAGE sample buffer (with 2% SDS and 2.5% DTT). After boiling for 3 minutes at 100° C. the sample is analyzed on a 12.5% SDS-PAGE (Mini-ProteanII; Bio-Rad). The proteins present are stained with Coomassie Blue. A sample with Marker proteins of known sizes (Bio-Rad) serves as reference. For identification the proteins are transferred after SDS-PAGE to nitrocellulose paper by means of a Mini Trans-Blotter™. The proteins are stained with Coomassie Blue, and the protein around 30 kDa is […] and dissolved in buffer. The sequence of this sample is determined. SAP is isolated from normal human serum by making use of the Ca-dependent binding to Sepharose. […]

“Also recorded” adds a separate entry of the source.

Regarding “SAP fragment, amino acids 29-36: Pro Leu Gln Asn Phe Thr Leu Cys, SEQ ID NO 5 (PLQNFTLC; Fragment of the Serum Amyloid P component, peptide 29-36) [PEP 29-36]”, in assay [1], the IC50 amounted to 6.5 µM and the “inhibition of binding of LPS to monocytes (in words)” value (“inhibition of binding of LPS” for short) is listed as “acceptable activity”.
With “SAP fragment, amino acids 27-34: Glu Lys Pro Leu Gln Asn Phe Thr, SEQ ID NO 8 (EKPLQNFT; Fragment of the Serum Amyloid P component, peptide 27-34) [PEP 27-34]”, the IC50 in assay [1] was greater than 106 µM.
The same measure, in the same setting: to “SAP fragment, amino acids 28-35: Lys Pro Leu Gln Asn Phe Thr Leu, SEQ ID NO 7 (KPLQNFTL; Fragment of the Serum Amyloid P component, peptide 28-35) [PEP 28-35]” belongs greater than 100 µM.
For the substance “SAP fragment, amino acids 33-38: Phe Thr Leu Cys Phe Arg, SEQ ID NO 2 (FTLCFR; Fragment of the Serum Amyloid P component, peptides 33-38) [PEP 33-38]”, the “inhibition of binding of LPS” value in assay [1] is “acceptable activity”.
For Serum Amyloid P component [SAP], in assay [1], the IC50 was found to be 0.05 µM and the “inhibition of binding of LPS” value is “concentration-dependent inhibition”. Besides, in assay [2], the “activation (priming) of neutrophils by LPS” value was “greatly reduced”. In addition, the “binding to LPS-Beads / free LPS” value in assay [3] is listed as “capable of binding with free LPS; also recorded: binds to the LPS-Beads”.
“SAP fragment, amino acids 32-39: Asn Phe Thr Leu Cys Phe Arg Ala, SEQ ID NO 3 (NFTLCFRA; Fragment of the Serum Amyloid P component, peptides 32-39) [PEP 32-39]”: in assay [1], the IC50 is 2 µM and the “inhibition of binding of LPS” value was “acceptable activity”.
The corresponding values for “SAP fragment, amino acids 27-39: Glu Lys Pro Leu Gln Asn Phe Thr Leu Cys Phe Arg Ala, SEQ ID NO 1 (EKPLQNFTLCFRA; Fragment of the Serum Amyloid P component, peptides 27-39; listed as Homo sapiens) [PEP 27-39]” are 0.1 µM and “very good activity”.
For “SAP fragment, amino acids 30-37: Leu Gln Asn Phe Thr Leu Cys Phe, SEQ ID NO 4 (LQNFTLCF; Fragment of the Serum Amyloid P component, peptide 30-37) [PEP 30-37]”, in that order: 4.5 µM and “acceptable activity”.

For the origin of these results see patent US6365570B1, “Pharmaceutical and diagnostic use of Serum Amyloid P component” (priority 1999, dated 2002).
